The CheMixHub ionic liquid set

Assay: xn = mol fraction of the nth substance listed

CC[n+]1ccn(C)c1.N#C[N-]C#N + CCCC[N+](C)(CCCC)CCCC.N#C[N-]C#N
101 kPa, x1 = 1
Conditions | viscosity [mPa·s]
303.15 K | 12.97
323.15 K | 8.28
343.15 K | 5.49
353.15 K | 4.63

CC[n+]1ccn(C)c1.N#C[N-]C#N + CCCCO
100 kPa
Conditions | viscosity [mPa·s]
298.15 K, x1 = 0.3006 | 3.16
303.15 K, x1 = 0.9012 | 8.7
308.15 K, x1 = 0.3006 | 2.29
308.15 K, x1 = 0.4008 | 2.52
308.15 K, x1 = 0.7012 | 4.34
308.15 K, x1 = 0.8016 | 5.5
313.15 K, x1 = 0.2007 | 1.97
313.15 K, x1 = 0.3006 | 2.03
318.15 K, x1 = 0.6014 | 2.39
323.15 K, x1 = 0.2007 | 1.56
323.15 K, x1 = 0.4008 | 1.71

CCC1COC(=O)O1 (stereo not drawn) + O=S(=O)([N-]S(=O)(=O)C(F)(F)F)C(F)(F)F.[Li+] + COC(=O)OC
298.15 K, 100 kPa
Conditions | viscosity [mPa·s]
x2 = 0.333, x3 = 0 | 323
x2 = 0.333, x3 = 0.3335 | 157
x2 = 0.333, x3 = 0.5002 | 93.7

CCCC[n+]1ccn(C)c1.F[B-](F)(F)F + CCCCCC[n+]1ccn(C)c1.F[B-](F)(F)F
Conditions | viscosity [mPa·s]
305.15 K, 101 kPa, x1 = 1 | 75.1

O=C1CCCCO1 + CCCC[n+]1ccn(C)c1.O=S(=O)([N-]S(=O)(=O)C(F)(F)F)C(F)(F)F
100 kPa, frequency 0.01 MHz
Conditions | electrical conductivity [S/m]
293.15 K, x2 = 0.1504 | 0.602
293.15 K, x2 = 0.4006 | 0.589
293.15 K, x2 = 0.8475 | 0.346
298.15 K, x2 = 0.1004 | 0.428
298.15 K, x2 = 0.4006 | 0.665
298.15 K, x2 = 0.5005 | 0.594
298.15 K, x2 = 0.5999 | 0.484
303.15 K, x2 = 0.1004 | 0.471
303.15 K, x2 = 0.1504 | 0.717
308.15 K, x2 = 0.0532 | 0.209
308.15 K, x2 = 0.1004 | 0.512
308.15 K, x2 = 0.2988 | 0.9
308.15 K, x2 = 0.7214 | 0.609
318.15 K, x2 = 0.1999 | 1.04
323.15 K, x2 = 0.0532 | 0.263
323.15 K, x2 = 0.1504 | 1
323.15 K, x2 = 0.1999 | 1.13
323.15 K, x2 = 0.7214 | 0.895

CCCC[n+]1ccn(C)c1.F[B-](F)(F)F + CCCC[n+]1ccn(C)c1.F[P-](F)(F)(F)(F)F
101 kPa, x2 = 0
Conditions | viscosity [mPa·s]
299.15 K | 101.9
301.15 K | 92
303.15 K | 83.4

O + CCCCCCCCCCCCCCCC[n+]1ccccc1.O=C([O-])C(O)c1ccccc1 + CC(C)[C@H](N)C(=O)O
101 kPa, x2 = 0, x3 = 0
Conditions | electrical conductivity [S/m]
293.15 K | 0.00012
298.15 K | 0.00015
303.15 K | 0.00016
308.15 K | 0.00017
313.15 K | 0.00019

CC1COC(=O)O1 (stereo not drawn) + CC[n+]1ccn(C)c1.N#C[S-]
101.3 kPa, x2 = 0
Conditions | viscosity [mPa·s]
293.15 K | 2.945
308.15 K | 1.919
333.15 K | 1.293

O + CCCC[n+]1ccn(C)c1.[Br-]
101 kPa, x2 = 0
Conditions | electrical conductivity [S/m]
288.15 K | 0.000101
298.15 K | 0.00015
308.15 K | 0.000216

CCCC[N+]1(C)CCCC1.N#C[N-]C#N + O
100 kPa
Conditions | viscosity [mPa·s]
298.15 K, x2 = 0.8348 | 8
318.15 K, x2 = 0.5802 | 9
323.15 K, x2 = 0.6452 | 7
333.15 K, x2 = 0.5238 | 7
338.15 K, x2 = 0.371 | 7.8
338.15 K, x2 = 0.3756 | 7.8

CN(CCO)CCO + CCCCCC[n+]1ccn(C)c1.O=S(=O)([N-]S(=O)(=O)C(F)(F)F)C(F)(F)F
101 kPa, x1 = 1
Conditions | viscosity [mPa·s]
303.15 K | 59.8
313.15 K | 37.9
318.15 K | 29.8

CCCC[n+]1ccn(C)c1.F[B-](F)(F)F + C1COCCO1
298.15 K, 100 kPa
Conditions | electrical conductivity [S/m] | viscosity [mPa·s]
x1 = 0.2559 | 0.403 | 6.011
x1 = 0.3956 | 0.395 | 12.17
x1 = 0.4988 | 0.34 | 19.88
x1 = 0.6 | 0.306 | 29.48
x1 = 0.7021 | – | 42.97
x1 = 0.8993 | 0.252 | 79.5
x1 = 1 | 0.243 | 104.7

CCCC[n+]1ccn(C)c1.F[B-](F)(F)F + CC(C)C[C@H](N)C(=O)O + O
viscosity [mPa·s], 100 kPa
Conditions | 293.15 K | 298.15 K | 303.15 K | 308.15 K | 313.15 K | 318.15 K
x2 = 0, x1 = 0.0003729 | 1.03 | 0.917 | 0.835 | 0.751 | 0.693 | 0.638
x2 = 0, x1 = 0.0007257 | 1.062 | 0.951 | 0.868 | 0.789 | 0.736 | 0.681
x2 = 0, x1 = 0.0011 | 1.093 | 0.983 | 0.904 | 0.83 | 0.779 | 0.725

CCCC[n+]1ccn(C)c1.F[B-](F)(F)F + c1ccncc1
298.15 K, 101 kPa, x2 = 0
Conditions | electrical conductivity [S/m] | viscosity [mPa·s]
– | 0.194 | 116
